According to patent US20230024778A1, “STRIGOLACTONE RECEPTOR INHIBITOR, AGRICULTURAL COMPOSITION AND USE THEREOF, STRIGA SEED GERMINATION INHIBITOR, AND TRIAZOLE UREA COMPOUND” (The University of Tokyo, priority 2017, published 2023):

Tested on: seeds of Striga (Striga hermonthica)
Assay: Germination inhibition test of Striga seeds
Assay type: in vivo
Method: The coadministration of the GR24 or the GR24 and the compound 25 was performed on seeds of Striga (Striga hermonthica) pretreated for one week at 30° C. The GR24 treatment was performed with 0.1 μM, and the compound 25 treatment was performed with 50 μM or 100 μM.

CC1=CC(O/C=C2/C(=O)O[C@@H]3c4ccccc4C[C@H]23)OC1=O (some centres unmarked) [GR24]
germination of the Striga seeds (GR24 0.1 μM added): germination of the Striga seeds is accelerated | Germination rate of striga seed (GR24 0.1 μM alone, compound 25 0 μM): 30.92%
